Measurements published in US10689378B2, “Triazolopyridine compounds and uses thereof” (Novartis AG, priority 2016, dated 2020).
Where two headings read alike, the source gives them in different places.

How the values were obtained:
EED (1-441)-His protein = biological target: T1, EED (1-441)-His protein (Homo sapiens, UniProt O75530); assay: EED-H3K27Me3 peptide competition binding assay by AlphaScreen
T1 construct: 30 nM EED (1-441)-His protein
Procedure: EED-H3K27Me3 Peptide Competition Binding Assay by AlphaScreen (α-Screen)
To assess the compounds' potency in the EED-H3K27Me3 competition binding assay, compounds were serially diluted 3-fold in DMSO to obtain a total of twelve concentrations. Then compounds at each concentration (75 nL of each) were transferred by Mosquito into a 384-well Perkin Elmer ProxiPlate 384 plus plates. 8 uL of solutions containing 30 nM EED (1-441)-His protein and 15 nM biotin-H3K27Me3 (19-33) peptide in the buffer (25 mM HEPES, pH 8, 0.02% Tween-20, 0.5% BSA) were added to the wells and then incubated with compound for 20 min. AlphaScreen detection beads mix was prepared immediately before use by mixing nickel chelate acceptor beads and streptavidin donor beads in a 1:1 ratio (Perkin Elmer, Product No. 6760619C/M/R) into the buffer described above. Then 4 μL of detection beads mix was added to the plate and incubate in the dark at the rt for 1 h. The final concentration of donor and acceptor beads was 10 μg/mL for each. Plates were read on EnVision (PerkinElmer) using the AlphaScreen setting adapted for optimal signal detection with a 615 nm filter, after sample excitation at 680 nm. The emission signal at 615 nm was used to quantify compounds inhibition. AlphaScreen signals were normalized based on the reading coming from the positive (maximum signal control) and negative controls (minimum signal control) to give percentage of activities left. The data were then fit to a dose response equation using the program Helios (Novartis) to get the IC50 values. Helios is a Novartis in-house assay data analysis software using the methods described by Normolle, D. P., Statistics in Medicine, 12:2025-2042 (1993); Formenko, I. et al, Computer Methods and Programs in Biomedicine, 82, 31-37 (2006); Sebaugh, J. L., Pharmaceutical Statistics, 10:128-134 (2011); Kelly, C. et al., Biometrics, 46(4):1071-1085 (1990); and Kahm, M. et al., Journal of Statistical Software, 33 (7): (2010) (grofit: Fitting Biological Growth Curves with R, pages 1-21, available at http://www.jstatsoft.org/).

[1] = test system: H3K27 methylation in G401 cell; assay: ELISA (H3K27 methylation) assay in G401 cells; assay type: cell-based, human; settings: Homo sapiens
Procedure: Compounds of the present invention were assessed for their ability to inhibit PRC2 activity in a pentameric complex of EZH2, SUZ12, EED, Rbap48 and AEBP in biochemical assays. The ability of compounds of the present invention to inhibit cellular activity of PRC2 was assessed by analysing histone H3 lysine 27 methylation in human cell lines. The ability of compounds of the present invention to inhibit cancers was derived from their ability to modulate activity in human cancer cell lines bearing specific dependence to PRC2 activity to maintain cancerous growth.
ELISA (H3K27 Methylation) Assay
Representative compounds of the present invention were serially and separately diluted 3-fold in DMSO to obtain a total of eight or twelve concentrations. Then the compounds were added to G401 cell cultured in 384-well plate at 1:500 dilution to obtain the highest concentration of 20 μM. The cells were further cultured for 48 h before ELISA procedure.
Histone extraction: Cells, in 384-well plate, were washed with PBS (10×PBS buffer (80 g NaCl (Sigma, S3014), 2 g KCl (Sigma, 60128), 14.4 g Na2HPO4 (Sigma, S5136), 2.4 g KH2PO4 (Sigma, P9791) to 1 L water, pH to 7.4) and lysed with the addition of lysis buffer (0.4N HCl; 45 μL per well). The plate was gently agitated at 4° C. for 30 min. The cell lysate was neutralized with neutralization buffer (0.5 M sodium phosphate dibasic, pH 12.5, 1 mM DTT; 36 μL per well). The plate was agitated to ensure the lysates were well mixed prior to the ELISA protocol.
ELISA protocol: Cell lysates were transferred to the wells of a 384-well plate and the final volume was adjusted to 50 μL per well with PBS. The plate was sealed, centrifuged at 2,000 rpm for 2 min and incubated at 4° C. for about 16 h. The plate was washed with TBST buffer (1×TBS (10×TBS: 24.2 g Tris (Sigma, T6066), 80 g NaCl (Sigma, S3014) to 1 L of water and adjust pH to 7.6 with HCl) with 0.1% Tween-20). Blocking buffer (TBST, 5% BSA; 50 μL per well) was added and the plate was incubated for 1 h at rt. The blocking buffer was removed and primary antibody was added (30 μL per well). The following dilutions were performed with blocking buffer: for anti-H3K27me3 antibody (Cell Signaling Technology, #9733), dilution was 1:1000; for anti-H3K27me2 antibody (Cell Signaling Technology, #9288), dilution was 1:100; for anti-H3 antibody (Abcam, Cat #24834), dilution was 1:1000. The primary antibody was incubated in the plate at rt for 1 h. The wells were washed with TBST and incubated with secondary antibody for 1 h at rt. For secondary antibodies, the following dilutions were carried out with blocking buffer: anti-rabbit antibody (Jackson ImmunoResearch, #111-035-003), dilution was 1:2000; and anti-mouse antibody (Cell signaling technology, #7076), dilution was 1:1000. After 1 h of incubation at rt, the wells were washed with TBST. ECL substrate (Pierce, #34080) was added at 30 μL per well and the plates were centrifuged at 2,000 rpm for 2 min. The signal was read using a PerkinElmer Envision Reader. The H3K27 methylation readouts were normalized using H3 signal and then percentage inhibition was calculated against the samples treated with DMSO. The data were then fit to a dose response curve using the program Helios to get the IC50 values of the test compound.

[2] = EED-H3K27Me3 peptide competition, AlphaScreen, read-out: (a) IC50 EED Alphascreen binding Qualified
[3] = G-401, H3K27 methylation ELISA, read-out: (c) IC50 ELISA Qualified
[4] = read-out: (a) IC50 EED Alphascreen binding Qualified
[5] = G-401, read-out: (c) IC50 ELISA Qualified
[6] = read-out: (a) IC50, EED Alphascreen binding Qualified
[7] = G-401, read-out: (c) IC50, ELISA Qualified

T1 sequence (O75530 whole entry): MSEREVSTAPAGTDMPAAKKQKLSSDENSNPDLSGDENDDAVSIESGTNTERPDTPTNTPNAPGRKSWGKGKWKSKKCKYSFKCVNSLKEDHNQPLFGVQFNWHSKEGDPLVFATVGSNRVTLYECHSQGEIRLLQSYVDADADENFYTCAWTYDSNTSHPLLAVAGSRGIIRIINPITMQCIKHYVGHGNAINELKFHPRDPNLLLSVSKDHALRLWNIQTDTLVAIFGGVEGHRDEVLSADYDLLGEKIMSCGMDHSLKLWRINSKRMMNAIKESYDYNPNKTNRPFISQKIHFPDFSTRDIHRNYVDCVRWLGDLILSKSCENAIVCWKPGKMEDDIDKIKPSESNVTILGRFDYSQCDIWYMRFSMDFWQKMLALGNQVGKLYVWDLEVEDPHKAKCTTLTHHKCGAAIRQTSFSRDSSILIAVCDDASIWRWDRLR

Row | IC50 (EED (1-441)-His protein; [2]) [nM] | IC50 [1, 3] [nM] | IC50 (EED (1-441)-His protein; [6]) [nM] | IC50 [1, 7] [nM] | also measured | Structure (SMILES)
1 | 283 | 704 |  |  |  | COc1cccc(F)c1CNc1ccc(-c2ccccc2C(F)(F)F)c2nncn12 [Example 193, N-(2-fluoro-6-methoxybenzyl)-8-(2-(trifluoromethyl)phenyl)-[1,2,4]triazolo[4,3-a]pyridin-5-amine]
2 | 14.8 | 14.7 |  |  |  | COc1cccc(F)c1CNc1ccc(-c2ccnc(C(F)(F)F)c2)c2nncn12 [Example 264, N-(2-fluoro-6-methoxybenzyl)-8-(2-(trifluoromethyl)pyridin-4-yl)-[1,2,4]triazolo[4,3-a] pyridin-5-amine]
3 | 329 | 349 |  |  |  | COc1ccc(F)c(F)c1CNc1ccc(-c2ccncc2)c2nncn12 [Example 243, N-(2,3-difluoro-6-methoxybenzyl)-8-(pyridin-4-yl)-[1,2,4]triazolo[4,3-a]pyridin-5-amine]
4 |  |  |  |  | IC50 (EED (1-441)-His protein; [4]): 142 nM; IC50 [1, 5]: 260 nM | COc1cccc(F)c1CNc1ccc(-c2c(C)ccnc2C)c2nncn12 [Example 346, 8-(2,4-dimethylpyridin-3-yl)-N-(2-fluoro-6-methoxybenzyl)-[1,2,4]triazolo[4,3-a] pyridin-5-amine]
5 |  |  | 105 | 253 |  | COc1cc(F)ccc1CNc1ccc(-c2ccc(C(=O)N3CCCC3)cc2)c2nncn12 [Example 96, (4-(5-((4-fluoro-2-methoxy benzyl)amino)-[1,2,4]triazolo[4,3-a]pyridin-8-yl)phenyl)(pyrrolidin-1-yl) methanone]
6 |  |  | 177 | 164 |  | COc1ccccc1CNc1ccc(-c2cncc(S(C)(=O)=O)c2)c2nncn12 [Example 95, N-(2-methoxybenzyl)-8-(5-(methylsulfonyl)pyridin-3-yl)-[1,2,4]triazolo[4,3-a] pyridin-5-amine]
7 | 119 | 76.2 |  |  |  | COc1cccc(F)c1CNc1ccc(-c2ccc(C#N)cc2C)c2nncn12 [Example 209, 4-(5-((2-fluoro-6-methoxybenzyl)amino)-[1,2,4]triazolo[4,3-a]pyridin-8-yl)-3-methylbenzonitrile]
8 |  |  | 255 | 385 |  | COc1ccc(F)c(CNc2ccc(-c3ccncc3)c3nncn23)c1 [Example 99, N-(2-fluoro-5-methoxybenzyl)-8-(pyridin-4-yl)-[1,2,4]triazolo[4,3-a] pyridin-5-amine]
9 | 2660 | 1530 |  |  |  | COc1cc(F)cc(F)c1CNc1c(F)cc(-c2cnc(C)nc2C)c2nncn12 [Example 321, N-(2,4-difluoro-6-methoxybenzyl)-8-(2,4-dimethylpyrimidin-5-yl)-6-fluoro-[1,2,4]triazolo[4,3-a]pyridin-5-amine]
10 |  |  | 127 | 159 |  | COc1cncc(-c2ccc(NCc3ccccc3OC)n3cnnc23)c1 [Example 51, N-(2-methoxybenzyl)-8-(5-methoxypyridin-3-yl)-[1,2,4] triazolo[4,3-a]pyridin-5-amine]
11 |  |  | 244 | 190 |  | COc1ccc(F)c(CNc2ccc(-c3ccc(S(C)(=O)=O)cc3)c3nncn23)c1 [Example 120, N-(2-fluoro-5-methoxybenzyl)-8-(4-(methylsulfonyl)phenyl)-[1,2,4]triazolo[4,3-a]pyridin-5-amine]
12 |  |  |  |  | IC50 (EED (1-441)-His protein; [4]): 4090 nM; IC50 [1, 5]: 3040 nM | COc1cnccc1CNc1ccc(-c2cccnc2C)c2nncn12 [Example 360, N-((3-methoxypyridin-4-yl)methyl)-8-(2-methylpyridin-3-yl)-[1,2,4]triazolo[4,3-a] pyridin-5-amine]
13 |  |  | 125 | 118 |  | COc1cccc(F)c1CNc1ccc(-c2cnn(CCO)c2)c2nncn12 [Example 145, 2-(4-(5-((2-fluoro-6-methoxybenzyl)amino)-[1,2,4]triazolo[4,3-a]pyridin-8-yl)-1H-pyrazol-1-yl)ethanol]
14 |  |  | 162 | 400 |  | COc1cc(F)ccc1CNc1ccc(-c2cccnc2)c2nncn12 [Example 93, N-(4-fluoro-2-methoxybenzyl)-8-(pyridin-3-yl)-[1,2,4]triazolo[4,3-a]pyridin-5-amine]
